Measurements: US8802597B2, “Herbicidal pyrimidines” (E I du Pont de Nemours and Company, priority 2003, dated 2014)
Where two headings read alike, the source gives them in different places.

Assays:
Type in all cases: in vivo
[1] = tested on: Surinam grass (Brachiaria decumbens); assay: Test B pre/postemergence; conditions: Urochloa decumbens; for pest or weed control at 125 g/ha: 125 g ai/ha; for pest or weed control at 500 g/ha: 500 g ai/ha
How it was run: (§1)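 Plants treated pre- or postemergence were compared visually with controls after 13 to 15 days. Ratings ran from 0, no effect, to 100, complete control.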

[2] = tested on: barnyardgrass (Echinochloa crus-galli); assay: Test B pre/postemergence; conditions: Echinochloa crus-galli; for pest or weed control at 125 g/ha: 125 g ai/ha; for pest or weed control at 500 g/ha: 500 g ai/ha
How it was run: as §1

[3] = tested on: cocklebur (Xanthium strumarium); assay: Test B pre/postemergence; conditions: Xanthium strumarium; for pest or weed control at 125 g/ha: 125 g ai/ha; for pest or weed control at 500 g/ha: 500 g ai/ha
How it was run: as §1

[4] = tested on: corn (Zea mays); assay: Test B pre/postemergence; conditions: Zea mays
How it was run: as §1

[5] = tested on: crabgrass (Digitaria sanguinalis); assay: Test B pre/postemergence; conditions: Digitaria sanguinalis; for pest or weed control at 125 g/ha: 125 g ai/ha; for pest or weed control at 500 g/ha: 500 g ai/ha
How it was run: as §1

[6] = tested on: giant foxtail (Setaria faberii); assay: Test B pre/postemergence; conditions: Setaria faberi; for pest or weed control at 125 g/ha: 125 g ai/ha; for pest or weed control at 500 g/ha: 500 g ai/ha
How it was run: as §1

[7] = tested on: lambsquarters (Chenopodium album); assay: Test B pre/postemergence; conditions: Chenopodium album; for pest or weed control at 125 g/ha: 125 g ai/ha; for pest or weed control at 500 g/ha: 500 g ai/ha
How it was run: as §1

[8] = tested on: morningglory (Ipomoea coccinea); assay: Test B pre/postemergence; conditions: Ipomoea; for pest or weed control at 125 g/ha: 125 g ai/ha; for pest or weed control at 500 g/ha: 500 g ai/ha
How it was run: as §1

[9] = tested on: pigweed (Amaranthus retroflexus); assay: Test B pre/postemergence; conditions: Amaranthus retroflexus; for pest or weed control at 125 g/ha: 125 g ai/ha; for pest or weed control at 500 g/ha: 500 g ai/ha
How it was run: as §1

[10] = tested on: velvetleaf (Abutilon theophrasti); assay: Test B pre/postemergence; conditions: Abutilon theophrasti; for pest or weed control at 125 g/ha: 125 g ai/ha; for pest or weed control at 500 g/ha: 500 g ai/ha
How it was run: as §1

[11] = tested on: wheat (Triticum aestivum); assay: Test B pre/postemergence; conditions: Triticum aestivum; for plant injury at 125 g/ha: 125 g ai/ha; for plant injury at 500 g/ha: 500 g ai/ha
How it was run: as §1

[12] = tested on: blackgrass (Alopecurus myosuroides); assay: Test B postemergence; conditions: Alopecurus myosuroides, post-emergence
How it was run: as §1

[13] = tested on: wild oat (Avena fatua); assay: Test B postemergence; conditions: Avena fatua, post-emergence
How it was run: as §1

[14] = tested on: barnyardgrass (Echinochloa crus-galli); assay: Test B flooded paddy test; conditions: Echinochloa crus-galli, Flood, 1000 g ai/ha; scale 0 (no effect) to 100 (complete control); read-out: Plant response rating, Barnyardgrass
How it was run: (§2)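 Plants were grown to the 2-leaf stage before treatment, then kept in a greenhouse for 13 to 15 days. Injury was rated visually against untreated controls on a 0 to 100 scale, where 0 is no effect and 100 is complete control.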

[15] = tested on: duck salad (Heteranthera limosa); assay: Test B flooded paddy test; conditions: Heteranthera limosa, Flood, 1000 g ai/ha; scale 0 to 100; read-out: Plant response rating, Ducksalad
How it was run: as §2

[16] = tested on: rice (Oryza sativa); assay: Test B flooded paddy test; conditions: Oryza sativa, Flood, 1000 g ai/ha; scale 0 to 100; read-out: Plant response rating, Rice
How it was run: as §2

[17] = tested on: umbrella sedge (Cyperus difformis); assay: Test B flooded paddy test; conditions: Cyperus difformis, Flood, 1000 g ai/ha; scale 0 to 100; read-out: Plant response rating, Sedge, Umbrella
How it was run: as §2

COC(=O)c1nc(C2CC2)nc(N)c1Br [Compound 2, methyl 6-amino-5-bromo-2-cyclopropyl-4-pyrimidinecarboxylate]
pest or weed control at 125 g/ha ([1]; post-emergence, Postemergence, scale 0 to 100 (0 no effect, 100 complete control), read-out: Surinam Grass plant response rating): 90% | pest or weed control at 500 g/ha ([1]; post-emergence, Postemergence, scale 0 to 100, read-out: Plant response rating, Surinam Grass): 90% | pest or weed control at 125 g/ha ([1]; pre-emergence, Preemergence, scale 0 to 100 (0 no effect, 100 complete control), read-out: Plant response rating, Surinam Grass): 40% | pest or weed control at 500 g/ha ([1]; pre-emergence, Preemergence, scale 0 to 100 (0 no effect, 100 complete control), read-out: Surinam Grass plant response rating): 90% | pest or weed control at 125 g/ha ([2]; post-emergence, Postemergence, scale 0 to 100 (0 no effect, 100 complete control), read-out: Barnyardgrass plant response rating): 90% | pest or weed control at 500 g/ha ([2]; post-emergence, Postemergence, scale 0 to 100, read-out: Plant response rating, Barnyardgrass): 90% | pest or weed control at 125 g/ha ([2]; pre-emergence, Preemergence, scale 0 to 100 (0 no effect, 100 complete control), read-out: Plant response rating, Barnyardgrass): 70% | pest or weed control at 500 g/ha ([2]; pre-emergence, Preemergence, scale 0 to 100 (0 no effect, 100 complete control), read-out: Barnyardgrass plant response rating): 90% | pest or weed control at 125 g/ha ([3]; post-emergence, Postemergence, scale 0 to 100 (0 no effect, 100 complete control), read-out: Cocklebur plant response rating): 100% | pest or weed control at 500 g/ha ([3]; post-emergence, Postemergence, scale 0 to 100, read-out: Plant response rating, Cocklebur): 100% | pest or weed control at 125 g/ha ([3]; pre-emergence, Preemergence, scale 0 to 100 (0 no effect, 100 complete control), read-out: Plant response rating, Cocklebur): 90% | pest or weed control at 500 g/ha ([3]; pre-emergence, Preemergence, scale 0 to 100 (0 no effect, 100 complete control), read-out: Cocklebur plant response rating): 100% | plant injury at 125 g/ha ([4]; post-emergence, Postemergence, 125 g ai/ha, scale 0 to 100 (0 no effect, 100 complete control), read-out: Corn plant response rating): 20% | Corn plant response rating (crop injury, 0 = no effect, 100 = complete kill) at 500 g/ha ([4]; post-emergence, Postemergence, 500 g ai/ha, scale 0 to 100): 80% | Corn plant response rating (crop injury, 0 = no effect, 100 = complete kill) at 125 g/ha ([4]; pre-emergence, Preemergence, 125 g ai/ha, scale 0 to 100 (0 no effect, 100 complete control)): 0% | plant injury at 500 g/ha ([4]; pre-emergence, Preemergence, 500 g ai/ha, scale 0 to 100 (0 no effect, 100 complete control), read-out: Corn plant response rating): 80% | pest or weed control at 125 g/ha ([5]; post-emergence, Postemergence, scale 0 to 100 (0 no effect, 100 complete control), read-out: Crabgrass plant response rating): 90% | pest or weed control at 500 g/ha ([5]; post-emergence, Postemergence, scale 0 to 100, read-out: Plant response rating, Crabgrass): 90% | pest or weed control at 125 g/ha ([5]; pre-emergence, Preemergence, scale 0 to 100 (0 no effect, 100 complete control), read-out: Plant response rating, Crabgrass): 90% | pest or weed control at 500 g/ha ([5]; pre-emergence, Preemergence, scale 0 to 100 (0 no effect, 100 complete control), read-out: Crabgrass plant response rating): 90% | pest or weed control at 125 g/ha ([6]; post-emergence, Postemergence, scale 0 to 100 (0 no effect, 100 complete control), read-out: Foxtail, Giant plant response rating): 70% | pest or weed control at 500 g/ha ([6]; post-emergence, Postemergence, scale 0 to 100, read-out: Plant response rating, Foxtail, Giant): 80% | pest or weed control at 125 g/ha ([6]; pre-emergence, Preemergence, scale 0 to 100 (0 no effect, 100 complete control), read-out: Plant response rating, Foxtail, Giant): 30% | pest or weed control at 500 g/ha ([6]; pre-emergence, Preemergence, scale 0 to 100 (0 no effect, 100 complete control), read-out: Foxtail, Giant plant response rating): 90% | pest or weed control at 125 g/ha ([7]; post-emergence, Postemergence, scale 0 to 100 (0 no effect, 100 complete control), read-out: Lambsquarters plant response rating): 100% | pest or weed control at 500 g/ha ([7]; post-emergence, Postemergence, scale 0 to 100, read-out: Plant response rating, Lambsquarters): 100% | pest or weed control at 125 g/ha ([7]; pre-emergence, Preemergence, scale 0 to 100 (0 no effect, 100 complete control), read-out: Plant response rating, Lambsquarters): 100% | pest or weed control at 500 g/ha ([7]; pre-emergence, Preemergence, scale 0 to 100 (0 no effect, 100 complete control), read-out: Lambsquarters plant response rating): 100% | pest or weed control at 125 g/ha ([8]; post-emergence, Postemergence, scale 0 to 100 (0 no effect, 100 complete control), read-out: Morningglory plant response rating): 100% | pest or weed control at 500 g/ha ([8]; post-emergence, Postemergence, scale 0 to 100, read-out: Plant response rating, Morningglory): 100% | pest or weed control at 125 g/ha ([8]; pre-emergence, Preemergence, scale 0 to 100 (0 no effect, 100 complete control), read-out: Plant response rating, Morningglory): 100% | pest or weed control at 500 g/ha ([8]; pre-emergence, Preemergence, scale 0 to 100 (0 no effect, 100 complete control), read-out: Morningglory plant response rating): 100% | pest or weed control at 125 g/ha ([9]; post-emergence, Postemergence, scale 0 to 100 (0 no effect, 100 complete control), read-out: Pigweed plant response rating): 100% | pest or weed control at 500 g/ha ([9]; post-emergence, Postemergence, scale 0 to 100, read-out: Plant response rating, Pigweed): 100% | pest or weed control at 125 g/ha ([9]; pre-emergence, Preemergence, scale 0 to 100 (0 no effect, 100 complete control), read-out: Plant response rating, Pigweed): 90% | pest or weed control at 500 g/ha ([9]; pre-emergence, Preemergence, scale 0 to 100 (0 no effect, 100 complete control), read-out: Pigweed plant response rating): 100% | pest or weed control at 125 g/ha ([10]; post-emergence, Postemergence, scale 0 to 100 (0 no effect, 100 complete control), read-out: Velvetleaf plant response rating): 60% | pest or weed control at 500 g/ha ([10]; post-emergence, Postemergence, scale 0 to 100, read-out: Plant response rating, Velvetleaf): 100% | pest or weed control at 125 g/ha ([10]; pre-emergence, Preemergence, scale 0 to 100 (0 no effect, 100 complete control), read-out: Plant response rating, Velvetleaf): 90% | pest or weed control at 500 g/ha ([10]; pre-emergence, Preemergence, scale 0 to 100 (0 no effect, 100 complete control), read-out: Velvetleaf plant response rating): 100% | plant injury at 125 g/ha ([11]; post-emergence, Postemergence, scale 0 to 100 (0 no effect, 100 complete control), read-out: Wheat plant response rating): 40% | plant injury at 500 g/ha ([11]; post-emergence, Postemergence, scale 0 to 100, read-out: Plant response rating, Wheat): 70% | plant injury at 125 g/ha ([11]; pre-emergence, Preemergence, scale 0 to 100 (0 no effect, 100 complete control), read-out: Plant response rating, Wheat): 60% | plant injury at 500 g/ha ([11]; pre-emergence, Preemergence, scale 0 to 100 (0 no effect, 100 complete control), read-out: Wheat plant response rating): 70% | pest or weed control at 125 g/ha ([12]; 125 g ai/ha, scale 0 to 100 (0 no effect, 100 complete control), read-out: Blackgrass plant response rating): 50% | pest or weed control at 500 g/ha ([12]; 500 g ai/ha, scale 0 to 100, read-out: Plant response rating, Blackgrass): 80% | pest or weed control at 125 g/ha ([13]; 125 g ai/ha, scale 0 to 100 (0 no effect, 100 complete control), read-out: Oat, Wild plant response rating): 40% | pest or weed control at 500 g/ha ([13]; 500 g ai/ha, scale 0 to 100, read-out: Plant response rating, Oat, Wild): 70% | pest or weed control at 1000 g/ha [14]: 90% | pest or weed control at 1000 g/ha [15]: 90% | plant injury at 1000 g/ha [16]: 60% | pest or weed control at 1000 g/ha [17]: 90%
